# How the values were obtained:
# Assay type in all cases: functional
# Conditions in all cases: read-out: ED50 (the source's name)
# P388 = assay: Cytotoxicity against mouse P388 cells
# HCT-8 = assay: Cytotoxicity against human HCT8 cells
# TE-671 = assay: Cytotoxicity against human TE671 cells
# A549 = assay: Cytotoxicity against human A549 cells
# KB = assay: Cytotoxicity against human KB cells
# [1] = Cytotoxicity against human RPMI cells
compound,measurement,setting,value
COC(=O)[C@@]12OC[C@]34[C@H](OC(=O)C[C@@H]13)[C@H](OC(=O)C=C(C)C)[C@H]1C(C)=C(O[C@@H]3O[C@H](CO)[C@@H](O)[C@H](O)[C@H]3O)C(=O)C[C@]1(C)[C@H]4[C@@H](O)[C@@H]2O [BRUCEOSIDE C],EC50,P388,5.11 µg/mL
same,EC50,HCT-8,4.51 µg/mL
same,EC50,TE-671,0.29 µg/mL
same,EC50,A549,0.44 µg/mL
same,EC50,KB,< 0.1 µg/mL
same,EC50,[1],< 0.1 µg/mL
